Laboratory results taken from ChEMBL document CHEMBL5131555, “Antibacterial Nanoassembled Calix[4]arene Exposing Choline Units Inhibits Biofilm and Motility of Gram Negative Bacteria” (2022).
The source made the active and inactive calls. The rule behind the calls is not given here.

Key:
[1] = test system: Cell membrane; assay: Induction of outer membrane permeabilization in Escherichia coli ATCC 10536 assessed as crystal violet uptake at MIC incubated for 60 mins by crystal violet staining based UV-VIS spectrophotometer ( Rvb = 56%)
[2] = test system: Escherichia coli; assay: Effect on swarming capacity of Escherichia coli ATCC 10536 assessed as reduction of motility zone at 1/2 times of MIC incubated for 24 hrs; assay type: functional; design: scale not given: the % may be the effect or the level left
[3] = test system: Pseudomonas aeruginosa; assay: Antibacterial activity against Pseudomonas aeruginosa DSM 102273 assessed as bacterial growth inhibition measured after 24 hrs by CLSI based microdilution method; assay type: functional
[4] = test system: Escherichia coli; assay: Bactericidal activity against Escherichia coli ATCC 10536 assessed as planktonic growth inhibition at 1/8 times of MIC measured after 24 hrs by spectrophotometer EIA reader analysis; assay type: functional
[5] = test system: Escherichia coli; assay: Bactericidal activity against Escherichia coli ATCC 10536 assessed as bacterial growth inhibition measured after 24 to 48 hrs by CLSI based microdilution method; assay type: functional; settings: time 24-48 hrs
[6] = test system: Pseudomonas aeruginosa; assay: Antibiofilm activity against ofloxacin resistant Pseudomonas aeruginosa 1 ocular isolate assessed as inhibition of biofilm biomass at 1/2 times of MIC measured after 24 hrs by safranin staining based spectrophotometer EIA reader analysis; assay type: functional
[7] = test system: Escherichia coli; assay: Antibiofilm activity against Escherichia coli ATCC 10536 assessed as inhibition of biofilm formation at 1/4 times of MIC measured after 24 hrs by safranin staining based light microscopy; assay type: functional, organism-based
[8] = test system: Pseudomonas aeruginosa; assay: Antibiofilm activity against Pseudomonas aeruginosa ATCC 9027 assessed as reduction in preformed bacterial biofilm at 18.8 microg/ml measured after 24 hrs by safranin staining based spectrophotometer EIA reader analysis; assay type: functional; design: scale not given: the % may be the effect or the level left; settings: dose 18.8 µg/ml
[9] = test system: Pseudomonas aeruginosa; assay: Effect on twitching capacity of Pseudomonas aeruginosa ATCC 9027 assessed as reduction of motility zone at 1/2 times of MIC incubated for 24 hrs; assay type: functional; design: scale not given: the % may be the effect or the level left
[10] = test system: Escherichia coli; assay: Antibiofilm activity against Escherichia coli ATCC 10536 assessed as reduction in preformed bacterial biofilm at 150 microg/ml measured after 24 hrs by safranin staining based spectrophotometer EIA reader analysis; assay type: functional; design: scale not given: the % may be the effect or the level left; settings: dose 150 µg/ml
[11] = test system: Pseudomonas aeruginosa; assay: Antibacterial activity against ofloxacin resistant Pseudomonas aeruginosa 1 ocular isolate assessed as bacterial growth inhibition measured after 24 hrs by CLSI based microdilution method; assay type: functional
[12] = test system: Escherichia coli; assay: Bactericidal activity against Escherichia coli ATCC 10536 assessed as planktonic growth inhibition at 1/4 times of MIC measured after 24 hrs by spectrophotometer EIA reader analysis; assay type: functional
[13] = test system: Pseudomonas aeruginosa; assay: Antibiofilm activity against Pseudomonas aeruginosa ATCC 9027 assessed as reduction in preformed bacterial biofilm at 37.6 microg/ml measured after 24 hrs by safranin staining based spectrophotometer EIA reader analysis; assay type: functional; design: scale not given: the % may be the effect or the level left; settings: dose 37.6 µg/ml
[14] = test system: Escherichia coli; assay: Effect on twitching capacity of Escherichia coli ATCC 10536 assessed as reduction of motility zone at 1/2 times of MIC incubated for 24 hrs; assay type: functional; design: scale not given: the % may be the effect or the level left
[15] = test system: Pseudomonas aeruginosa; assay: Antibiofilm activity against Pseudomonas aeruginosa ATCC 9027 assessed as reduction in preformed bacterial biofilm at 75 microg/ml measured after 24 hrs by safranin staining based spectrophotometer EIA reader analysis; assay type: functional; design: scale not given: the % may be the effect or the level left; settings: dose 75 µg/ml
[16] = test system: Pseudomonas aeruginosa; assay: Bactericidal activity against Pseudomonas aeruginosa ATCC 9027 assessed as bacterial growth inhibition measured after 24 to 48 hrs by CLSI based microdilution method; assay type: functional; settings: time 24-48 hrs
[17] = test system: Escherichia coli; assay: Antibiofilm activity against Escherichia coli ATCC 10536 assessed as inhibition of biofilm biomass at 1/4 times of MIC measured after 24 hrs by safranin staining based spectrophotometer EIA reader analysis; assay type: functional
[18] = test system: Escherichia coli; assay: Antibiofilm activity against Escherichia coli ATCC 10536 assessed as inhibition of biofilm biomass at 1/2 times of MIC measured after 24 hrs by safranin staining based spectrophotometer EIA reader analysis; assay type: functional
[19] = test system: Pseudomonas aeruginosa; assay: Antibiofilm activity against Pseudomonas aeruginosa ATCC 9027 assessed as inhibition of biofilm biomass at 1/2 times of MIC measured after 24 hrs by safranin staining based spectrophotometer EIA reader analysis; assay type: functional
[20] = test system: Pseudomonas aeruginosa; assay: Bactericidal activity against Pseudomonas aeruginosa DSM 102273 assessed as bacterial growth inhibition measured after 24 to 48 hrs by CLSI based microdilution method; assay type: functional; settings: time 24-48 hrs
[21] = test system: Cell membrane; assay: Induction of outer membrane permeabilization in Pseudomonas aeruginosa ATCC 9027 assessed as crystal violet uptake at MIC incubated for 60 mins by crystal violet staining based UV-VIS spectrophotometer ( Rvb = 53%)
[22] = test system: Pseudomonas aeruginosa; assay: Effect on twitching capacity of ofloxacin resistant Pseudomonas aeruginosa 1 ocular isolate assessed as reduction of motility zone at 1/2 times of MIC incubated for 24 hrs; assay type: functional; design: scale not given: the % may be the effect or the level left
[23] = test system: Escherichia coli; assay: Antibiofilm activity against Escherichia coli ATCC 10536 assessed as formation of looser colonies at 1/4 times of MIC measured after 24 hrs by safranin staining based light microscopy; assay type: functional, organism-based
[24] = test system: Pseudomonas aeruginosa; assay: Bactericidal activity against ofloxacin resistant Pseudomonas aeruginosa 1 ocular isolate assessed as bacterial growth inhibition measured after 24 to 48 hrs by CLSI based microdilution method; assay type: functional; settings: time 24-48 hrs
[25] = test system: Escherichia coli; assay: Antibiofilm activity against Escherichia coli ATCC 10536 assessed as formation of looser colonies at 1/2 times of MIC measured after 24 hrs by safranin staining based light microscopy; assay type: functional, organism-based
[26] = test system: Escherichia coli; assay: Antibacterial activity against Escherichia coli ATCC 10536 assessed as bacterial growth inhibition measured after 24 hrs by CLSI based microdilution method; assay type: functional
[27] = test system: Pseudomonas aeruginosa; assay: Effect on swarming capacity of Pseudomonas aeruginosa ATCC 9027 assessed as reduction of motility zone at 1/2 times of MIC incubated for 24 hrs; assay type: functional; design: scale not given: the % may be the effect or the level left
[28] = test system: Escherichia coli; assay: Antibiofilm activity against Escherichia coli ATCC 10536 assessed as inhibition of biofilm formation at 1/2 times of MIC measured after 24 hrs by safranin staining based light microscopy; assay type: functional, organism-based
[29] = test system: Pseudomonas aeruginosa; assay: Antibacterial activity against Pseudomonas aeruginosa ATCC 9027 assessed as bacterial growth inhibition measured after 24 hrs by CLSI based microdilution method; assay type: functional
[30] = test system: Escherichia coli; assay: Antibiofilm activity against Escherichia coli ATCC 10536 assessed as inhibition of biofilm biomass at 1/8 times of MIC measured after 24 hrs by safranin staining based spectrophotometer EIA reader analysis; assay type: functional

SMILES: CCCCCCCCCCCCOc1c2cc(C[N+](C)(C)CCO)cc1Cc1cc(C[N+](C)(C)CCO)cc(c1OCCCCCCCCCCCC)Cc1cc(C[N+](C)(C)CCO)cc(c1OCCCCCCCCCCCC)Cc1cc(C[N+](C)(C)CCO)cc(c1OCCCCCCCCCCCC)C2.[Cl-].[Cl-].[Cl-].[Cl-]
- Activity [1]: 78.8%
- Activity [2]: 50%
- MIC [3]: 18.8 mg/L
- inhibition (INH) [4]: 1.8%
- MBC [5]: 18.8 mg/L
- inhibition (INH) [6]: 40%
- Activity [7]: Active
- Activity [8]: 37%
- Activity [9]: 50%
- Activity [10]: 66.5%
- MIC [11]: 9.4 mg/L
- inhibition (INH) [12]: 14.5%
- Activity [13]: 37%
- Activity [14]: 50%
- Activity [15]: 58%
- MBC [16]: 18.8 mg/L
- inhibition (INH) [17]: 77.6%
- inhibition (INH) [18]: 90.4%
- inhibition (INH) [19]: 40%
- MBC [20]: 18.8 mg/L
- Activity [21]: 71.6%
- Activity [22]: 50%
- Activity [23]: Active
- MBC [24]: 18.8 mg/L
- Activity [25]: Active
- MIC [26]: 18.8 mg/L
- Activity [27]: 50%
- Activity [28]: Active
- MIC [29]: 9.4 mg/L
- inhibition (INH) [30]: 51%
